Data set [1] concerns Barnyardgrass (Echinochloa crus-galli). The experiment in a line: Postemergence herbicidal activity, greenhouse spray. In kind it is in vivo. The conditions noted are these: Echinochloa crus-galli, post-emergence, 336 h, visual score after 2 weeks, read-out: Post-emergent % control ECHCG; for pest or weed control at 500 ppm / pest or weed control at 250 ppm: Table 1; for pest or weed control at 500 ppm: rate 500 ppm; for pest or weed control at 125 ppm: Table 2, rate 125 ppm; for pest or weed control at 250 ppm: rate 250 ppm. A digest of the protocol:
(§1)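 Greenhouse-grown plants at the first or second true leaf stage received an atomized foliar spray of compound in an aqueous carrier containing acetone, isopropyl alcohol, DMSO, crop oil concentrate and Triton X-155. Afterwards they were held at about 23-29° C day and 22-28° C night, with sub-irrigation.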

The subject of data set [2] is Cocklebur (Xanthium strumarium). The data set is described as above. To be noted: Xanthium strumarium, post-emergence, 336 h, visual score after 2 weeks, read-out: Post-emergent % control XANST; for pest or weed control at 500 ppm / pest or weed control at 250 ppm: Table 1; for pest or weed control at 500 ppm: rate 500 ppm, 0 no injury, 100 complete kill; for pest or weed control at 125 ppm: Table 2, rate 125 ppm; for pest or weed control at 250 ppm: rate 250 ppm. Format: in vivo. An outline of the steps: as §1

The test system of data set [3] is Lambsquarter (Chenopodium album). Described as above. To be noted: Chenopodium album, post-emergence, 336 h, visual score after 2 weeks, read-out: Post-emergent % control CHEAL; for pest or weed control at 500 ppm / pest or weed control at 250 ppm: Table 1; for pest or weed control at 500 ppm: rate 500 ppm; for pest or weed control at 125 ppm: Table 2, rate 125 ppm; for pest or weed control at 250 ppm: rate 250 ppm. Format: in vivo. An outline of the steps:
as §1

The test system of data set [4] is Yellow nutsedge (Cyperus esculentus). Described as above. Format: in vivo. The conditions noted are these: Cyperus, post-emergence, 336 h, visual score after 2 weeks, read-out: Post-emergent % control CYPES; for pest or weed control at 500 ppm / pest or weed control at 250 ppm: Table 1; for pest or weed control at 500 ppm: rate 500 ppm; for pest or weed control at 125 ppm: Table 2, rate 125 ppm; for pest or weed control at 250 ppm: rate 250 ppm. An outline of the steps: as §1

The test system of data set [5] is Crabgrass(large) (Digitaria sanguinalis). The experiment in a line: Preemergence herbicidal activity, soil spray. In kind it is in vivo. The conditions noted are these: Digitaria sanguinalis, pre-emergence, 504 h, Table 5, visual score after 3 weeks, read-out: Pre-emergent % control DIGSA; for pest or weed control at 140 ppm: rate 140 ppm; for pest or weed control at 560 ppm: rate 560 ppm. A digest of the protocol: (§2)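 After seeding into loam:sand (70 to 30), pots received a uniform soil-surface spray of the compound, diluted serially from 97:3 acetone:dimethyl sulfoxide stocks with aqueous 0.1% Tween 155; carrier-sprayed pots served as controls. Plants grew under greenhouse conditions of about 23-29° C by day and 22-28° C by night.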

The test system of data set [6] is Giant Foxtail (Setaria faberi). Briefly: Preemergence herbicidal activity, soil spray. Format: in vivo. The conditions noted are these: Setaria faberi, pre-emergence, 504 h, Table 5, visual score after 3 weeks, read-out: Pre-emergent % control SETFA; for pest or weed control at 140 ppm: rate 140 ppm; for pest or weed control at 560 ppm: rate 560 ppm. A digest of the protocol: as §2

For data set [7], the system named is Lambsquarter (Chenopodium album). Briefly: Preemergence herbicidal activity, soil spray. Format: in vivo. To be noted: Chenopodium album, pre-emergence, 504 h, Table 5, visual score after 3 weeks, read-out: Pre-emergent % control CHEAL; for pest or weed control at 140 ppm: rate 140 ppm; for pest or weed control at 560 ppm: rate 560 ppm, 100 complete kill or no germination. An outline of the steps:
as §2

Data set [8] relates to Pigweed (redroot) (Amaranthus retroflexus). The experiment in a line: Preemergence herbicidal activity, soil spray. The conditions noted are these: Amaranthus retroflexus, pre-emergence, 504 h, Table 5, visual score after 3 weeks, read-out: Pre-emergent % control AMARE; for pest or weed control at 140 ppm: rate 140 ppm; for pest or weed control at 560 ppm: rate 560 ppm. Format: in vivo. An outline of the steps:
as §2

As a reminder, the melting point is the temperature of the solid-liquid transition.

For the molecule `Nc1c(F)c(C(=O)O)nc(-c2ccccc2Cl)c1F` [Compound 202, 4-Amino-3,5-difluoro-6-(6-chlorophenyl)pyridine-2-carboxylic acid], the melting point was 166 to 167 °C (dec.). Also, in [1], the pest or weed control at 500 ppm came to 100% and the pest or weed control at 125 ppm was found to be 70%. Also, in data set [2], the pest or weed control at 500 ppm stood at 100% and the pest or weed control at 125 ppm turned out to be 100%. In [3], the pest or weed control at 500 ppm was determined as 100% and the pest or weed control at 125 ppm was determined as 100%. For the same molecule, in data set [4], the pest or weed control at 500 ppm stood at 95% and the pest or weed control at 125 ppm came to 80%. Also, the pest or weed control at 140 ppm in data set [5] was 100%. In data set [6], the pest or weed control at 140 ppm came out at 95%. In addition, in [7], the pest or weed control at 140 ppm was determined as 95%. The pest or weed control at 140 ppm in data set [8] was found to be 100%.
For `Nc1c(F)c(-c2ccc3c(c2)OCO3)nc(C(=O)O)c1Cl` [Compound 196, 4-Amino-3-chloro-5-fluoro-6-(3,4-methylenedioxyphenyl)pyridine-2-carboxylic acid], the melting point came to 169 °C. Moreover, in data set [1], the pest or weed control at 250 ppm is 100% and the pest or weed control at 125 ppm turned out to be 100%. Besides, in [2], the pest or weed control at 250 ppm amounted to 100% and the pest or weed control at 125 ppm is 100%. Besides, in data set [3], the pest or weed control at 250 ppm stood at 100% and the pest or weed control at 125 ppm was determined as 100%. In addition, in [4], the pest or weed control at 250 ppm was 98% and the pest or weed control at 125 ppm is 100%. Also, in data set [5], the pest or weed control at 560 ppm was found to be 100%. For the same molecule, the pest or weed control at 560 ppm in data set [6] is 100%. For the same molecule, in [7], the pest or weed control at 560 ppm was 100%. Further, in data set [8], the pest or weed control at 560 ppm amounted to 100%.
Regarding `Cc1ccc(-c2nc(C(=O)O)c(Cl)c(N)c2F)cc1` [Compound 163, 4-Amino-3-chloro-5-fluoro-6-(4-methylphenyl)pyridine-2-carboxylic acid], the melting point is 145 to 148 °C (dec.). Further, in data set [1], the pest or weed control at 250 ppm came to 70% and the pest or weed control at 125 ppm stood at 70%. For the same molecule, in data set [2], the pest or weed control at 250 ppm was 100% and the pest or weed control at 125 ppm was found to be 100%. Moreover, in [3], the pest or weed control at 250 ppm was found to be 95% and the pest or weed control at 125 ppm was 90%. Further, in data set [4], the pest or weed control at 250 ppm was determined as 70% and the pest or weed control at 125 ppm was 70%. Also, in data set [5], the pest or weed control at 140 ppm worked out at 100%. For the same molecule, the pest or weed control at 140 ppm in [6] stood at 95%. The pest or weed control at 140 ppm in data set [7] was 100%. Moreover, the pest or weed control at 140 ppm in data set [8] was found to be 98%.
As to `COC(=O)c1nc(-c2ccc(Cl)cc2)c(F)c(N)c1F` [Compound 90, Methyl 4-amino-3,5-difluoro-6-(4-chlorophenyl)pyridine-2-carboxylate], the melting point was in the range of 165 to 166 °C. The pest or weed control at 500 ppm in data set [1] worked out at 98%. In [2], the pest or weed control at 500 ppm came to 100%. Moreover, in data set [3], the pest or weed control at 500 ppm was 100%. Further, in data set [4], the pest or weed control at 500 ppm worked out at 90%. Also, in data set [5], the pest or weed control at 560 ppm turned out to be 100%. For the same molecule, in [6], the pest or weed control at 560 ppm was 100%. The pest or weed control at 560 ppm in data set [7] was found to be 100%. Further, the pest or weed control at 560 ppm in data set [8] worked out at 100%.
As to `Nc1cc(-c2ccc(Cl)c(Cl)c2)nc(C(=O)O)c1Cl` [Compound 150, 4-Amino-3-chloro-6-(3,4-dichlorophenyl)pyridine-2-carboxylic acid], the melting point lay within 185 to 186 °C. Besides, in [1], the pest or weed control at 500 ppm is 95%. In addition, the pest or weed control at 500 ppm in [2] worked out at 100%. Further, the pest or weed control at 500 ppm in [3] came to 100%. For the same molecule, the pest or weed control at 500 ppm in data set [4] is 95%. Also, the pest or weed control at 140 ppm in [5] turned out to be 90%. Also, the pest or weed control at 140 ppm in data set [6] was 100%. Also, in data set [7], the pest or weed control at 140 ppm turned out to be 100%. Further, the pest or weed control at 140 ppm in [8] stood at 100%.
In turn, `COC(=O)c1nc(-c2ccc3c(c2)OCO3)c(F)c(N)c1Cl` [Compound 84, Methyl 4-amino-3-chloro-5-fluoro-6-(3,4-methylenedioxyphenyl)pyridine-2-carboxylate] yielded a melting point of 160 °C. In addition, in data set [1], the pest or weed control at 250 ppm worked out at 98% and the pest or weed control at 125 ppm turned out to be 98%. For the same molecule, in [2], the pest or weed control at 250 ppm turned out to be 100% and the pest or weed control at 125 ppm amounted to 100%. Further, in data set [3], the pest or weed control at 250 ppm came out at 100% and the pest or weed control at 125 ppm came out at 100%. In [4], the pest or weed control at 250 ppm is 100% and the pest or weed control at 125 ppm is 90%. Moreover, in [5], the pest or weed control at 560 ppm amounted to 100%. Besides, the pest or weed control at 560 ppm in data set [6] came out at 100%. Further, the pest or weed control at 560 ppm in data set [7] came out at 100%. Further, in [8], the pest or weed control at 560 ppm stood at 100%.
For `COc1ccccc1-c1cc(N)c(Cl)c(C(=O)O)n1` [Compound 139, 4-Amino-3-chloro-6-(2-methoxyphenyl)pyridine-2-carboxylic acid], the melting point lay within 177 to 179 °C. In addition, in data set [1], the pest or weed control at 250 ppm is 70%. The pest or weed control at 250 ppm in data set [2] is 100%. In addition, the pest or weed control at 250 ppm in data set [3] was 95%. In addition, the pest or weed control at 250 ppm in [4] was found to be 30%. Also, in data set [5], the pest or weed control at 560 ppm is 100%. The pest or weed control at 560 ppm in data set [6] came to 100%. Also, in [7], the pest or weed control at 560 ppm was 100%. The pest or weed control at 560 ppm in data set [8] stood at 100%.
As for `Nc1c(F)c(-c2ccc(Cl)cc2F)nc(C(=O)O)c1Cl` [Compound 189, 4-Amino-3-chloro-5-fluoro-6-(4-chloro-2-fluorophenyl)pyridine-2-carboxylic acid], the melting point lay in the range of 154 to 155 °C. The pest or weed control at 125 ppm in data set [1] turned out to be 90%. In data set [2], the pest or weed control at 125 ppm came out at 90%. Moreover, the pest or weed control at 125 ppm in data set [3] was found to be 90%. Also, the pest or weed control at 125 ppm in data set [4] was found to be 90%. The pest or weed control at 140 ppm in data set [5] was determined as 100%. Besides, the pest or weed control at 140 ppm in [6] was 100%. Further, the pest or weed control at 140 ppm in [7] came to 100%. In addition, in [8], the pest or weed control at 140 ppm was determined as 100%.
The molecule `Nc1cc(-c2cccc(Cl)c2)nc(C(=O)O)c1Cl` [Compound 143, 4-Amino-3-chloro-6-(3-chlorophenyl)pyridine-2-carboxylic acid] displayed a melting point of 171 °C. Further, the pest or weed control at 500 ppm in data set [1] was 70%. For the same molecule, the pest or weed control at 500 ppm in [2] was 100%. Further, the pest or weed control at 500 ppm in data set [3] is 100%. For the same molecule, in data set [4], the pest or weed control at 500 ppm came to 40%. In data set [5], the pest or weed control at 560 ppm was 100%. Further, the pest or weed control at 560 ppm in data set [6] was 100%. Further, the pest or weed control at 560 ppm in [7] came out at 100%. The pest or weed control at 560 ppm in data set [8] is 100%.
For the molecule `Nc1c(F)c(-c2ccc3c(c2)CCO3)nc(C(=O)O)c1Cl` [Compound 197, 4-Amino-3-chloro-5-fluoro-6-(2,3-dihydro-5-benzofuranyl)pyridine-2-carboxylic acid], the melting point stood at 171 °C. In data set [1], the pest or weed control at 250 ppm was determined as 90% and the pest or weed control at 125 ppm came to 85%. In data set [2], the pest or weed control at 250 ppm came out at 100% and the pest or weed control at 125 ppm was 100%. In data set [3], the pest or weed control at 250 ppm stood at 100% and the pest or weed control at 125 ppm is 100%. Further, in data set [4], the pest or weed control at 250 ppm was 95% and the pest or weed control at 125 ppm was 85%. In addition, in [5], the pest or weed control at 560 ppm was found to be 100%. Besides, in data set [6], the pest or weed control at 560 ppm was 100%. In data set [7], the pest or weed control at 560 ppm worked out at 100%. Further, in data set [8], the pest or weed control at 560 ppm was 100%.
